Experimental data as given in patent EP4737445A1, “NOVEL SATURATED HETEROCYCLE-SUBSTITUTED HETEROARYL-CARBONOHYDRAZONOYL DICYANIDE COMPOUND AND USE THEREOF” (Korea Institute of Science and Technology, priority 2023, dated 2025).

Legend:
Format in all cases: in vivo
[1] = Pharmacokinetic study in rats (IV and PO, plasma); conditions: Sprague-Dawley, rat, SD rats
Description: The pharmacokinetics of the compounds prepared according to Examples 1 to 46 were studied using experimental animal models. Specifically, 7- to 8-week-old SD rats (Koatech, Hana Sangsa Co., Ltd.) weighing approximately 250 to 300 g were purchased and maintained in a small animal simple breeding room set at a temperature of 22 ± 2°C, relative humidity of 50 ± 5%, lighting time of 12 hours (lights on at 8 AM and lights off at 8 PM), and illumination of 150 to 300 lux. Throughout the entire test period, feed was provided ad libitum, RO water was provided ad libitum, and fasting was performed for 16 hours before oral administration of the drug. After preparing the drugs under the conditions shown in Table 7 below, the drugs were administered by intravenous injection (IV) or oral administration (PO). Collected blood at 500 µL was collected in tubes containing heparin sodium and centrifuged at 8000 rpm at 2 to 8°C for 6 minutes to obtain plasma from the blood. 20 µL of the obtained plasma was taken, added to 180 µL of acetonitrile containing an internal standard, vortexed, and centrifuged at 15,000 rpm at 4°C for 5 minutes, and the obtained supernatant was analyzed by LC-MS/MS. The HPLC and MS conditions used for analysis are shown in Tables 8 and 9 below, respectively.
Specific PK parameters were calculated using Phoenix WinNonlin 6.4 version (Pharsight, USA) program and a non-compartmental analysis model, and the results are summarized in Table 11 below.

[2] = system: TauP301L-BiFC Tg mice; experiment: Y-maze test in tau transgenic mice; conditions: oral 10 mg/kg, 5 times per week, 19 weeks, vehicle = 60.7%
Description: (§1) Compounds 6, 16, and 20 were orally administered to 8.2-month-old tau transgenic animal model (TauP301L-BiFC tg mouse) 5 times per week at a concentration of 10 mg/kg for a total of 19 weeks (n=10/group). WT mice of similar age to the vehicle-treated group of TauP301L-BiFC mice were used as a control group. Three types of behavioral experiments (Novel Objective Recognition test, Y-maze test, Balance beam test) were performed to confirm the improvement effects on cognitive function and motor function by drug administration, and these experiments and their results were as follows. • (1) Novel Objective Recognition test: To evaluate the object recognition memory ability of mice, two identical objects (Old-Old) were explored for 10 minutes in a 40 cm × 40 cm box. The next day, one object was replaced with a new object (Old-New) and exploration was performed again for 10 minutes, and then the time showing exploratory behavior toward the existing object and the new object was measured. Mice with normal object recognition ability (Recognition index) spent more time exploring the newly changed object, whereas mice with low object recognition ability could not distinguish the new object. The object recognition ability (Recognition index) values were as follows: (RI, Vehicle= 0.48, n.s., #20= 0.59, p<0.05, #6= 0.66, p<0.0001, #16= 0.58, p<0.05). In TauP301L-BiFC mice, the object recognition function improvement effect by drugs #20, #6, and #16 compared to the vehicle group was confirmed. • (2) Y-maze test: A Y-maze test was performed to evaluate the spatial working memory ability of mice. Whether the mice entered the three arms of the Y-maze by spontaneous alternation behavior for a certain period of time was measured through video recording. An increase in the spontaneous alternation ratio was considered as improved working memory ability. […] The time taken to cross a rod with a height of 50 cm and length of 80 cm and the number of times the feet went outside the rod during crossing were measured. […]

[3] = system: TauP301L-BiFC Tg mice; experiment: Balance beam test in tau transgenic mice; conditions: oral 10 mg/kg, 5 times per week, 19 weeks, vehicle = 1.5
Description: as §1

[4] = molecular target: T1, tau (Homo sapiens, UniProt P10636, P618L); experiment: Tau phosphorylation immunoblot of RIPA-soluble brain lysates; conditions: TauP301L-BiFC mice, oral 10 mg/kg, 19 weeks, vehicle = 100%
T1 construct: BiFC fluorescent-protein fragments (two complementary halves); from tissue; host or cells: brain of TauP301L-BiFC transgenic mice
Description: (§2) [2] To verify the tau pathology inhibitory efficacy of the drug confirmed through brain tissue imaging via brain lysate immunoblot, brain lysates were separated and purified, and immunoblot using tau antibody was performed in soluble and insoluble fractions. The brain was weighed, and RIPA lysis buffer containing the corresponding dose of protease and phosphatase inhibitors was added to the brain tissue. The tissue was then disrupted using a homogenizer and incubated at 4°C for 2 hours, and then centrifuged at 13,200 rpm at 4°C for 20 minutes. After centrifugation, the supernatant was collected as a RIPA-soluble fraction and stored at -80°C. To prepare the RIPA-insoluble fraction, the remaining pellet was washed once with RIPA lysis buffer containing 1 M sucrose, and then 2% SDS solution (1 mL per 1 g of tissue) was added and incubated at room temperature for 1 hour. Thereafter, the mixture was centrifuged at 13,200 rpm for 1 minute at room temperature, and the supernatant was collected as a RIPA-insoluble fraction and stored at -80°C.
(§3) For tau immunoblot analysis, 20 µg of brain tissue RIPA-soluble sample was separated on a 10% SDS-PAGE gel and transferred to a PVDF membrane, and RIPA-insoluble samples were diluted 10-fold in 2% SDS solution and 20 µL of each sample was loaded on an SDS-PAGE gel. The total tau and phosphorylated tau levels were detected by Tau5, which is an anti-tau antibody, and pS199 and pS396, which are anti-phosphorylated tau antibodies. ImageJ software (NIH) was used to quantify band intensity.

[5] = molecular target: T1, tau; experiment: Total tau immunoblot of RIPA-insoluble brain lysates; conditions: TauP301L-BiFC mice, compared to vehicle, numbers not readable (formula image)
Description: as §2, §3
The results of total tau immunoblot using RIPA-insoluble brain lysates were as follows: [formula]

T1 sequence (P10636 1-441 isoform P10636-8 P301L): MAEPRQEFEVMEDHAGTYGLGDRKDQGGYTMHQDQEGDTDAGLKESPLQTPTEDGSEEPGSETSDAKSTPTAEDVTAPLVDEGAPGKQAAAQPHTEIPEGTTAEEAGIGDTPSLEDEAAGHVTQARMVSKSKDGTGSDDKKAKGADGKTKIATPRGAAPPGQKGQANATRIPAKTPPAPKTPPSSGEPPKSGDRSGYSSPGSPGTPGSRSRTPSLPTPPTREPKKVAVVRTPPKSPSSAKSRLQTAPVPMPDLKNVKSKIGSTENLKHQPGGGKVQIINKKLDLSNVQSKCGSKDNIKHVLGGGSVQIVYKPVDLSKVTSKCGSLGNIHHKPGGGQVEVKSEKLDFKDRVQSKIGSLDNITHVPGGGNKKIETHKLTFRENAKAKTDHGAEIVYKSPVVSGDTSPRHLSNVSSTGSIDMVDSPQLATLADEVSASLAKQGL

CC1COCCN1c1nc2ccc(NN=C(C#N)C#N)cc2o1 (centres unmarked) [Compound 16, (2-(3-methylmorpholino)benzo[d]oxazol-6-yl)carbonohydrazonoyl dicyanide]
bioavailability ([1]; IV 2 mg/kg, PO 10 mg/kg): 114% | AUC ([1]; IV, 2 mg/kg): 4090 ng·h/mL | Cmax ([1]; IV, 2 mg/kg): 4090 ng/mL | clearance ([1]; IV, 2 mg/kg): 8.33 mL/min/kg | half-life ([1]; IV, 2 mg/kg): 30.6 min | AUC ([1]; PO, 10 mg/kg): 23300 ng·h/mL | Cmax ([1]; PO, 10 mg/kg): 11100 ng/mL | Tmax ([1]; PO, 10 mg/kg): 40.2 min | half-life ([1]; PO, 10 mg/kg): 112 min | spontaneous alternation ratio (Alteration ratio (%)) [2]: 76.4% | Average number of times feet went outside the rod (n) [3]: 0.8 | pS199 tau phosphorylation immunoblot [4]: 24% | pS396 tau phosphorylation immunoblot [4]: 40% | total tau immunoblot, insoluble tau aggregate formation [5]: inhibition of insoluble tau aggregate formation

N#CC(C#N)=NNc1ccc2nc(N3C4CCC3COC4)oc2c1 [Compound 20, (2-(3-oxa-8-azabicyclo[3.2.1]octan-8-yl)benzo[d]oxazol-6-yl)carbonohydrazonoyl dicyanide]
bioavailability ([1]; IV 1 mg/kg, PO 15 mg/kg): 114% | AUC ([1]; IV, 1 mg/kg): 130 ng·h/mL | clearance ([1]; IV, 1 mg/kg): 132 mL/min/kg | half-life ([1]; IV, 1 mg/kg): 12 min | AUC ([1]; PO, 15 mg/kg): 2210 ng·h/mL | Cmax ([1]; PO, 15 mg/kg): 2050 ng/mL | Tmax ([1]; PO, 15 mg/kg): 24 min | half-life ([1]; PO, 15 mg/kg): 96 min | spontaneous alternation ratio (Alteration ratio (%)) [2]: 70.8% | Average number of times feet went outside the rod (n) [3]: 0.7 | pS199 tau phosphorylation immunoblot [4]: 60% | pS396 tau phosphorylation immunoblot [4]: 71% | total tau immunoblot, insoluble tau aggregate formation [5]: inhibition of insoluble tau aggregate formation

Cn1c(N2CCOCC2)nc2cc(NN=C(C#N)C#N)ccc21 [Compound 6, (1-methyl-2-morpholino-1H-benzo[d]imidazol-5-yl)carbonohydrazonoyl dicyanide]
bioavailability ([1]; IV 2 mg/kg, PO 10 mg/kg): 42% | AUC ([1]; IV, 2 mg/kg): 1700 ng·h/mL | Cmax ([1]; IV, 2 mg/kg): 9870 ng/mL | clearance ([1]; IV, 2 mg/kg): 19.5 mL/min/kg | half-life ([1]; IV, 2 mg/kg): 34.8 min | AUC ([1]; PO, 10 mg/kg): 3570 ng·h/mL | Cmax ([1]; PO, 10 mg/kg): 4880 ng/mL | Tmax ([1]; PO, 10 mg/kg): 15 min | half-life ([1]; PO, 10 mg/kg): 53.4 min | spontaneous alternation ratio (Alteration ratio (%)) [2]: 71.1% | Average number of times feet went outside the rod (n) [3]: 1.1 | pS199 tau phosphorylation immunoblot [4]: 48% | pS396 tau phosphorylation immunoblot [4]: 60% | total tau immunoblot, insoluble tau aggregate formation [5]: inhibition of insoluble tau aggregate formation
